The text below walks through data of patent publication US11814376B2, “Hepatitis b core protein modulators” (Assembly Biosciences, Inc., priority 2015, dated 2023).

For series [1], the system named is HBV viral load in AD38 cells. Kind of series: Viral load production in AD38 cells, quantitative PCR of the core sequence in supernatant. The class given is cell-based. To be noted: Hepatitis B virus, 144 h, 10 μM compound, 6 days at 37° C., supernatant qPCR, relative to DMSO control; read-out: AD38 Viral Load (%) (VL with cmpd/VL in DMSO control) at 10 μM. As to the method: (§1) Example 2: Assay Measuring Activity of Compounds on Viral Production in and on Viability of AD38 Cells
(§2) AD38 cells were then re-suspended with 10 mL of Treatment Medium and counted. Wells of a collagen coated 96-well NUNC microtiter plate were seeded at 50,000/well in 180 μL of Treatment Medium, and 20 μL of in treatment media with either 10% DMSO (Control) or a 10× solution of compound in 10% DMSO was added. Plates were incubated for 6 days at 37° C.
Viral load production was assayed by quantitative PCR of the core sequence. […] The PCR mixture was incubated at 45° C. for 5 minutes, then 95° C. for 10 min, followed by 40 cycles of 10 seconds at 95° C. and 20 seconds at 60° C. Viral load was quantitated against known standards by using ViiA™ 7 Software. Viral load in the supernatant from wells with treated cells were compared against viral load in supernatant from DMSO control wells (>3 per plate).

The next series deals with AD38 cells. Briefly: Viability of AD38 cells (Promega CellTiter-Glo). The class given is cell-based. To be noted: 10 μM compound, 6 days, CellTiter-Glo luminescence normalized to DMSO control (100%). As to the method:
as §1, §2
At the end of compound treatment period cell viability was assessed using a Promega CellTiter-Glo protocol. All supernatant was removed the previously treated 96-well microtiter plate, and 50 μL Tetracycline-free treatment medium (DMEM/F12 (1:1), 1× Pen/step (cat #: 30-002-CL, Mediatech, Inc), with 2% FBS, Tet-system approved (cat #: 631106, Clontech), and 1% DMSO was added back to each well. Another 50 μL of CellTiter-Glo reagent solution (Promega, G7573) was then added at room temperature and the contents mixed for 2 minutes on an orbital shaker to induce cell lysis. This was followed by incubation at room temperature for 10 minutes to stabilize the luminescent signal. The luminescence was recorded for 0.2 seconds per well on a Tecan multimode plate reader (Infinite M1000 pro). The luminescent signal from each well was normalized against that of untreated (DMSO) control wells. All results were reported percent viability (with controls being 100%).
On the technique in general: ATP-based viability assays read luminescence as a measure of living cells.

Regarding `O=C1Nc2c(ccc(C(=O)NCc3cnc(-n4cccn4)s3)c2Cl)S(=O)(=O)c2ccccc21` [C51-02], the activity at 10 µM in series [1] amounted to 0.2%. The “AD38 Viability Normalized Result (cmpd/DMSO %) at 10 μM” value with AD38 cells is reported as 98%.
For `O=C(NCc1cnc(C(F)(F)F)s1)c1ccc2c(c1)NC(=O)c1ccccc1S2` [compound 1421], in that order: 1.3% and 104%.
As for `CNc1ncc(CNC(=O)c2ccc3c(c2)NC(=O)c2ccccc2S3)s1` [compound 1424], in series [1], the activity at 10 µM stood at 0.5%. Moreover, the “AD38 Viability Normalized Result (cmpd/DMSO %) at 10 μM” value in the series on AD38 cells turned out to be 97%.
For `CN(C)c1ncc(CNC(=O)c2ccc3c(c2)NC(=O)c2ccccc2S3)s1` [compound 1425], in that order: 0.6% and 100%.
For `O=C(NCc1scnc1C(F)(F)F)c1ccc2c(c1)NC(=O)c1ccccc1S2` [compound 1431], in that order: 5.5% and 103%.
Regarding `O=C(Nc1ncc(Cl)s1)c1ccc2c(c1)NC(=O)c1ccccc1S2(=O)=O` [compound 1473], the activity at 10 µM in series [1] worked out at 26.5%. Further, the “AD38 Viability Normalized Result (cmpd/DMSO %) at 10 μM” value in the series on AD38 cells turned out to be 79%.
For `Cc1cc2c(cc1C(=O)NCc1cncs1)NC(=O)c1ccccc1S2` [compound 1496], in that order: 9.6% and 57%.
Taken in the same sequence, the figures for `O=C(NCc1cnc(-c2ccccc2)s1)c1ccc2c(c1)NC(=O)c1ccccc1S2(=O)=O` [compound 1525] were 0.2% and 104%.
Taken in the same sequence, the figures for `Cc1ncc(CNC(=O)c2ccc3c(c2)NC(=O)c2ccccc2[S+]3[O-])s1` (stereo not drawn) [compound 1526] were 0.8% and 94%.
For `Cc1ncc(CNC(=O)c2ccc3c(c2)NC(=O)c2ccccc2S3(=O)=O)s1` [compound 1528], the activity at 10 µM in series [1] was 0.8%. Also, the “AD38 Viability Normalized Result (cmpd/DMSO %) at 10 μM” value in the series with AD38 cells came to 76%.
With `Nc1ncc(CNC(=O)c2ccc3c(c2)NC(=O)c2ccccc2S3(=O)=O)s1` [compound 1529], the activity at 10 µM in series [1] is 2%. For the same molecule, the “AD38 Viability Normalized Result (cmpd/DMSO %) at 10 μM” value with AD38 cells is 97%.
Taken in the same sequence, the figures for `Cc1ncc(CNC(=O)c2ccc3c(c2C)NC(=O)c2ccccc2S3)s1` [compound 1535] were 0.8% and 84%.
For `Cc1ncc(CNC(=O)c2ccc3c(c2)NC(=O)c2cc(Cl)ccc2S3)s1` [compound 1541], in that order: 3.7% and 98%.
Taken in the same sequence, the figures for `Cc1ncc(CNC(=O)c2ccc3c(c2)NC(=O)c2ccc(Cl)cc2S3)s1` [compound 1544] were 2.6% and 88%.
For the molecule `CC1c2ccc(C(=O)NCc3cncs3)cc2NC(=O)c2ccccc21` (stereo not drawn) [compound 1546], the activity at 10 µM in series [1] worked out at 2.2%. Also, the “AD38 Viability Normalized Result (cmpd/DMSO %) at 10 μM” value in the series on AD38 cells worked out at 97%.
Taken in the same sequence, the figures for `Cc1ncc(CNC(=O)c2ccc3c(c2)NC(=O)c2ccccc2C3C)s1` (stereo not drawn) [compound 1548] were 0.4% and 97%.
In the case of `CC(C)(NC(=O)c1ccc2c(c1)NC(=O)c1ccccc1S2)c1cncs1` [compound 1549], the activity at 10 µM in series [1] was found to be 106%. The “AD38 Viability Normalized Result (cmpd/DMSO %) at 10 μM” value in the series with AD38 cells is 105%.
Taken in the same sequence, the figures for `CC(C)(C)c1ncc(CNC(=O)c2ccc3c(c2)NC(=O)c2ccccc2S3(=O)=O)s1` [compound 1550] were 4% and 96%.
`CCc1ncc(CNC(=O)c2ccc3c(c2)NC(=O)c2ccccc2S3(=O)=O)s1` [compound 1551]: the activity at 10 µM in series [1] was 0.4%. The “AD38 Viability Normalized Result (cmpd/DMSO %) at 10 μM” value in the series with AD38 cells came to 99%.
For `CC(C)c1ncc(CNC(=O)c2ccc3c(c2)NC(=O)c2ccccc2S3(=O)=O)s1` [compound 1552], in that order: 0.4% and 102%.
As for `O=C(NCc1cnc(C(F)(F)F)s1)c1ccc2c(c1)NC(=O)c1ccccc1S2(=O)=O` [compound 1553], in series [1], the activity at 10 µM stood at 0.5%. For the same molecule, in the series on AD38 cells, the “AD38 Viability Normalized Result (cmpd/DMSO %) at 10 μM” value is reported as 107%.
As to `CC(C)(C)c1ncc(CNC(=O)c2ccc3c(c2)NC(=O)c2ccccc2S3)s1` [compound 1555], the activity at 10 µM in series [1] is 1%. In addition, the “AD38 Viability Normalized Result (cmpd/DMSO %) at 10 μM” value in the series on AD38 cells was 89%.
Taken in the same sequence, the figures for `O=C(NCc1cnc(-c2ccc(F)cc2)s1)c1ccc2c(c1)NC(=O)c1ccccc1S2` [compound 1556] were 1.6% and 105%.
Taken in the same sequence, the figures for `Cc1ncc(CNC(=O)c2ccc3c(c2)NC(=O)c2ccccc2O3)s1` [compound 1557] were 0.6% and 98%.
For `CCc1ncc(CNC(=O)c2ccc3c(c2)NC(=O)c2ccccc2O3)s1` [compound 1558], in that order: 0.5% and 106%.
Regarding `CC(C)c1ncc(CNC(=O)c2ccc3c(c2)NC(=O)c2ccccc2O3)s1` [compound 1559], the activity at 10 µM in series [1] was 0.7%. In the series with AD38 cells, the “AD38 Viability Normalized Result (cmpd/DMSO %) at 10 μM” value is listed as 87%.
With `O=C(NCc1cnc(-c2ccc(F)cc2)s1)c1ccc2c(c1)NC(=O)c1ccccc1O2` [compound 1561], the activity at 10 µM in series [1] was determined as 10.3%. Also, the “AD38 Viability Normalized Result (cmpd/DMSO %) at 10 μM” value in the series with AD38 cells is reported as 96%.
For `O=C(NCc1cnc(-c2ccccc2)s1)c1ccc2c(c1)NC(=O)c1ccccc1O2` [compound 1562], in that order: 0.9% and 97%.
Take `O=C(O)COc1ncc(CNC(=O)c2ccc3c(c2)NC(=O)c2ccccc2S3(=O)=O)s1` [compound 1580, 2-((5-((5,5-dioxido-11-oxo-10, 11-dihydrodibenzo [b, f] [1, 4]thiazepine-8-carboxamido)methyl)thiazol-2-yl)oxy) acetic acid]: the activity at 10 µM in series [1] was 104%. In addition, in the series with AD38 cells, the “AD38 Viability Normalized Result (cmpd/DMSO %) at 10 μM” value is given as 102%.
With `O=C(O)COc1ccc(-c2ncc(CNC(=O)c3ccc4c(c3)NC(=O)c3ccccc3S4(=O)=O)s2)cc1` [compound 1581, 2-(4-(5-((5,5-dioxido-11-oxo-10, 11-dihydrodibenzo [b, f] [1, 4]thiazepine-8-carboxamido)methyl)thiazol-2-yl)phenoxy) acetic acid], the activity at 10 µM in series [1] came to 34.4%. Further, the “AD38 Viability Normalized Result (cmpd/DMSO %) at 10 μM” value in the series on AD38 cells is given as 93%.
Taken in the same sequence, the figures for `O=C(O)CNc1ncc(CNC(=O)c2ccc3c(c2)NC(=O)c2ccccc2S3(=O)=O)s1` [compound 1583, (5-((5,5-dioxido-11-oxo-10, 11-dihydrodibenzo [b, f] [1, 4]thiazepine-8-carboxamido)methyl)thiazol-2-yl) glycine] were 1% and 0%.
For `CN(C)CCOc1ccc(-c2ncc(CNC(=O)c3ccc4c(c3)NC(=O)c3ccccc3S4(=O)=O)s2)cc1` [compound 1584], in that order: 1.4% and 101%.
On to `O=C(O)c1ccc(-c2ncc(CNC(=O)c3ccc4c(c3)NC(=O)c3ccccc3S4(=O)=O)s2)cc1` [compound 1585, 4-(5-((5,5-dioxido-11-oxo-10, 11-dihydrodibenzo [b, f] [1, 4]thiazepine-8-carboxamido)methyl)thiazol-2-yl) benzoic acid], for which the activity at 10 µM in series [1] was 64.1%. Further, the “AD38 Viability Normalized Result (cmpd/DMSO %) at 10 μM” value in the series with AD38 cells was 96%.
With `CN(C)CCOc1ncc(CNC(=O)c2ccc3c(c2)NC(=O)c2ccccc2S3(=O)=O)s1` [compound 1586, N-((2-(2-(dimethylamino)ethoxy)thiazol-5-yl)methyl)-11-oxo-10, 11-dihydrodibenzo [b, f] [1, 4] thiazepine-8-carboxamide 5,5-dioxide], the activity at 10 µM in series [1] came out at 27.9%. Moreover, in the series with AD38 cells, the “AD38 Viability Normalized Result (cmpd/DMSO %) at 10 μM” value stood at 83%.
In the case of `O=C(NCc1cnc(-c2ccc(OCCN3CCOCC3)cc2)s1)c1ccc2c(c1)NC(=O)c1ccccc1S2(=O)=O` [compound 1587], the activity at 10 µM in series [1] was found to be 2.8%. In addition, the “AD38 Viability Normalized Result (cmpd/DMSO %) at 10 μM” value in the series with AD38 cells is given as 99%.
On to `O=C(O)CSc1ncc(CNC(=O)c2ccc3c(c2)NC(=O)c2ccccc2S3(=O)=O)s1` [compound 1589, 2-((5-((5,5-dioxido-11-oxo-10, 11-dihydrodibenzo [b, f] [1, 4]thiazepine-8-carboxamido)methyl)thiazol-2-yl)thio) acetic acid], for which, in series [1], the activity at 10 µM amounted to 80%. The “AD38 Viability Normalized Result (cmpd/DMSO %) at 10 μM” value in the series on AD38 cells turned out to be 98%.
